Laboratory results from patent US8216580B2, “Sulfatases and methods of use thereof” (The Regents of the University of California, priority 2000, dated 2012).

How the values were obtained:
[1] = tested on: chick chorioallantoic membrane (CAM); test: Chick chorioallantoic membrane (CAM) angiogenesis assay; type: in vivo; conditions: 5×10^6 stably transfected CHO cells on CAM of 9 day embryos, 72 hrs; compared to CHO-Sulf-1 or empty vector clone
Protocol: Sulf-2 functions as a heparan sulfate degrading enzyme (HSDE) during tumor angiogenesis by mobilizing angiogenic factors from sequestration with HSPGs We employed the chick chorioallantoic membrane (CAM) assay, a standard angiogenesis assay. CHO cells were stably transfected with HSulf-1, HSulf-2, or the empty vector and clones were isolated. Single clones of each type were implanted on the surface of the CAM of 9 day embryos. After 72 hrs, the number of new blood vessel branches was determined under a dissecting scope.
FIG. 17. Pro-angiogenic activity of HSulf-2. 5×10^6 CHO cells were implanted on the CAM of 9-day chick embryos. The CHO cells were clones that were stably transfected with either the empty vector (clone V1), HSulf-1 (clone 9) or HSulf-2 (clone 18). After 72 hrs of further incubation, the number of blood vessel branches was counted under a dissecting microscope. 6 eggs were treated with each type of CHO cell. Means and standard errors of the means are indicated.

Wnt signaling = test: TCF-luciferase (TOPFlash/FOPFlash) Wnt reporter assay in HEK 293 cells co-cultured with Wnt-expressing 3T3 fibroblasts; type: cell-based, human; conditions: stably transfected HEK 293 cells co-cultured with Wnt1 or Wnt4 expressing 3T3 fibroblasts
Protocol: Cells were plated in 24 well plates and transfected with either 0.3 μg TOPFlash or FOPFlash and 0.01 μg Renilla control plasmid (Promega) using Fugene (Roche) according to the manufacturer's procedure. After 48 hours cells were lysed and analyzed utilizing the Dual Luciferase Reporter Assay system (Promega). Luciferase activity was normalized to control Renilla activity.
To assay HSulf influence on Wnt signaling in HEK 293 cells, HEK 293 cells were transfected with TOP/FOPFlash and Renilla control plasmid. 24 hours later the medium was changed, and Wnt1-transfected 3T3 […] fibroblasts were added. 24 hours later, Luciferase activity was measured, as described above.
Dhoot et al. (2001) supra; Ai et al. (2003) J Cell Biol 162:341-351. In order to determine if the human Sulfs affect Wnt signaling, the effect of HSulf-1 and -2, when overexpressed in a heterologous expression system on Wnt signaling, was analyzed. For this purpose, HEK 293 cells stably transfected with either HSulf-1 (HS1) or HSulf-2 (HS2) were co-cultured with Wnt1 or Wnt4 expressing 3T3 fibroblasts. Wnt activity was measured by utilizing a quantitative TCF-luciferase reporter gene (FOPFlash/TOPFlash system). van de Wetering et al. (1997) Cell 88:789-799.

## HSulf-2: Human SULF2, an 870 amino acid sulfatase protein, SEQ ID NO:06; expressed with C-terminal Myc-His tag
[1]
  number of new blood vessel branches: dramatic response
Wnt signaling
  increase of Wnt activity: two-fold
